Measurements published in patent US20050032904A1, “Composition and use of allylamine derivatives” (priority 2003, published 2005).

Assays:
Type in all cases: cell-based, human
[1] = system: HL 60 cells; assay: Flow cytometry (FACS) cell cycle analysis; details: TB 10-150 μM, 15 h
[2] = system: cell cycle regulatory proteins in COLO 205 cells; assay: Western blot of cell cycle regulatory proteins
Description: They were then returned to culture media supplemented with 10% FCS and 0.05% DMSO with or without TB (60 μM), and at various times thereafter, they were harvested for protein extraction and Western blot analysis. Based on the FACS analysis in the COLO 205 cells, 0, 15, 18 and 24 h after release from quiescence represents the G0/G1, S, G2/M and 2nd G0/G1 phase of the cell cycle, respectively. (FIG. 2A). Accordingly, these time points were selected for protein extraction and Western blot analysis to examine the effects of TB on the expression of cell cycle regulatory proteins. In FIG. 6, (A) In the DMSO-treated COLO 205, 10% FCS caused a transit increase in p21/Cip1 protein (upper panel). […] The COLO 205 cells were synchronized with 0.04% FCS for 24 h, and then released into complete medium (10% FCS) containing TB (60 μM) for the indicated time points. COLO 205 cells were also treated with DMSO (0.05%, v/v) as a control group. Protein extracts (100 μg/lane) were separated by SDS-PAGE, probed with specific antibodies, and detected using the NBT/BCIP system. […] (LaBaer J, et. al., Genes & Development 1997;11(7):847-62.).
In contrast, TB induced apoptosis in the HL 60 (p53 null) and Hep 3B (p53 partial deleted). […] To further test this hypothesis, the dose effects of TB on the levels of cell cycle regulatory protein were conducted in four different human cancer cell lines, COLO 205 (p53 wild type), HT 29 (p53 His^273 mutant), Hep 3B (p53 partial deleted) and HL 60 (p53 null). […] The cells were rendered quiescent for 24 h, and then challenged with 10% FCS and treated with various concentrations of TB (60-150 μM) for additional 15 h. Protein extracts (100 μg/lane) were separated by SDS-PAGE, probed with specific antibodies, and detected using the NBT/BCIP system. Membranes were also probed with anti-GAPDH antibody to correct for differences in protein loading.
(§1) As previously described (Chen R J, et. al., Toxicology & Applied Pharmacology 2000;169(2):132-41.), the frozen tumor was pulverized in liquid N2, and then mixed with lysis buffer (Tris-HCl 0.5 M, pH 6.8, SDS 0.4%). For cell cultures, the cells were seeded onto 150-mm dishes and grown in RPMI 1640 (for COLO 205, HT 29 and HL 60 cells) or MEM (for Hep 3B) supplemented with 10% FCS. After the cells had grown to subconfluence, they were rendered quiescent. The cells were released from quiescence with culture medium supplemented with 10% FCS. TB in 0.05% DMSO or 0.05% DMSO without TB was added to the cells at various concentrations and the mixture was allowed to incubate for 17 h. Western blot analysis was performed as previously described (Chen R J, et. al., Toxicology & Applied Pharmacology 2000;169(2):132-41; Lee W S, et. al., Circulation Research 1998;82(8):845-51.). Immunodetection was carried by probing with proper dilutions of specific antibodies at room temperature for 2 h. Anti-p21/Cip1, anti-p27/Kip1, anti-p53, anti-GAPDH monoclonal antibodies (Santa Cruz, Inc. CA); anti-cyclin B1, D1, and D3, anti-cdk2 and cdk4, and PCNA monclonal antibodies (Transduction Laboratories, Lexington, Ky.) were used at a concentration of 1:1,000 dilution. Anti-cyclin A and E polyclonal antibodies (Transduction, San Diego, Calif.) were used at a concentration of 1:250 dilution. The secondary antibodies, alkaline phosphatase-coupled anti-mouse or anti-rabbit antibody (Jackson, Westgrove Pa.), was incubated at room temperature for 1 h at a concentration of 1:5,000 or 1:1,000 dilution, respectively. The specific protein complexes were identified by incubating with the colorigenic substrates (nitro blue tetrazolium, NBT, and 5-bromo-4-chloro-3-indolyl-phosphate, BCIP; Sigma Chemical Co., St. Louis, Mo.). In each experiment, membranes were also probed with anti-GAPDH antibody to correct for differences in protein loading.

[3] = system: cell cycle regulatory proteins in HL 60 cells; assay: Western blot of cell cycle regulatory proteins; details: TB 60-150 μM, 15 h
Description: as §1, with “To further test this hypothesis, the dose effects of TB on the levels of cell cycle regulatory protein were conducted in four different human cancer cell lines, COLO 205 (p53 wild type), HT 29 (p53 […] mutant), Hep 3B (p53 partial deleted) and HL 60 (p53 null). […] The cells were rendered quiescent for 24 h, and then challenged with 10% FCS and treated with various concentrations of TB (60-150 μM) for additional 15 h. Protein extracts (100 μg/lane) were separated by SDS-PAGE, probed with specific antibodies, and detected using the NBT/BCIP system. Membranes were also probed with anti-GAPDH antibody to correct for differences in protein loading. As” for “As”, “The secondary antibodies, alkaline phosphatase-coupled anti-mouse or anti-rabbit antibody (Jackson, Westgrove Pa.), was incubated at room temperature for 1 h at a concentration of 1:5,000 or 1:1,000 dilution, respectively. The specific protein complexes were identified by incubating with the colorigenic substrates (nitro blue tetrazolium, NBT, and 5-bromo-4-chloro-3-indolyl-phosphate, BCIP;” left out

[4] = TB 60-150 μM, 15 h, dose-dependent

CN(C/C=C/C#CC(C)(C)C)Cc1cccc2ccccc12 [TB, 1-Naphthalenemethanamine, N-(6,6-dimethyl-2-hepten-4-ynyl)-N-methyl-, (E)-]
apoptosis (presence of sub G1) [1]: dose-dependently caused the occurrence of apoptosis
G0/G1 arrest ([1]; p53 null cells): did not induce G0/G1 arrest
p53 and p21 electrophoretogram bands ([2]; 60 μM TB alone, 15 h): increased in intensity
p21/Cip1 protein level, time effect ([2]; TB 60 μM after release from quiescence): persistent increase
p27/Kip1 protein levels, time effect ([2]; TB 60 μM, 0-24 h after 10% FCS): maintained at high levels
Cyclin A2 and cyclin B levels ([2]; TB 60 μM, time course): also downregulated
level of pRB protein (phosphorylated Rb) ([2]; TB 60 μM, time course): downregulated
levels of cyclin D1 and PCNA protein ([2]; TB 60 μM, time course): not changed
levels of cyclin D3, cdk2 and cdk4 protein ([2]; TB 60 μM, time course): downregulated
levels of cyclin E protein ([2]; TB 60 μM, time course): slightly elevated
levels of cyclin D3 and cdk4, dose effect [2, 4]: decreased
levels of p53, p21/Cip1 and p27/Kip1 protein, dose effect [2, 4]: increased
levels of p53 and p21/Cip1 protein, dose effect [3]: did not change
levels of p27/Kip1 protein, dose effect ([3]; dose-dependent): significantly increased
